Source: patent publication US20240024290A1, “PHARMACEUTICAL COMPOSITIONS COMPRISING CANNABINOID AGONIST” (ARTELO BIOSCIENCES LIMITED, priority 2020, published 2024)
Where “and” joins values, the source holds several entries; their conditions need not be identical. Identical values can stand only once.

Assay: Solubility study of API in liquid, semi-solid and binary excipients (visual, solvent aliquots, Parts 1 and 2)
Conditions: for Aliquot where API first fully dissolved, Part 2 Study: aliquots 1/2/3/4 = 0.8/0.4/0.25/0.1 % w/v
Experimental: The aim of this study was to assess the solubility of the N-(2-(tert-butyl)-1-((4,4-difluorocyclohexyl)methyl)-1H-benzimidazol-5-yl)ethanesulfonamide in a number of different excipients.
The binary semi-solid composition mixtures were manufactured as follows: • I. The semi solids were dispensed then molten overnight at ˜60° C. […] (PEG 6000) • II. PEG 400 was added the next day, as required, (when all the semi-solids were molten) • III. Binary solvent mixture containing PEG 6000 were mixed at ˜80° C. and the remaining binaries were mixed at ˜70° C., until homogenous
Where required, the semi solids were melted prior to use (overnight). The solubility of the API in the selected solvents was assessed in two parts (Part 1 and Part 2 Studies) as follows: • i. Solvent aliquots were added to pre-dispensed API while mixing using a magnetic flea and stirrer. • ii. The temperature of the solvents was maintained as follows: • a. Single-component liquids: Room temperature (ambient) • b. TPGS and PEG 1500: ˜60° C. • c. PEG 6000 and binary solvent mixtures containing PEG 6000: ˜80° C. • iii. Solvents were mixed for a maximum of 1 hour between each aliquot addition. • iv. The solvents were carefully inspected visually between aliquots. • v. The addition of solvent was stopped when: • a. After Aliquot 2 addition if API fully dissolve—(even if API dissolve after Aliquot 1, Aliquot 2 was added) • b. After adding all the solvent aliquots in Table 28 • vi.

CCS(=O)(=O)Nc1ccc2c(c1)nc(C(C)(C)C)n2CC1CCC(F)(F)CC1 [Compound I, N-(2-(tert-butyl)-1-((4,4-difluorocyclohexyl)methyl)-1H-benzimidazol-5-yl)ethanesulfonamide]
Aliquot where API first fully dissolved, Part 1 Study (in 1,2-propane diol, ambient, DND = did not dissolve even after 3 aliquots (0.0125 % w/v)): DND* | Aliquot where API first fully dissolved, Part 1 Study (in Corn oil, ambient, DND = did not dissolve even after 3 aliquots (0.0125 % w/v)): DND* | Aliquot where API first fully dissolved, Part 2 Study (in Diethylene glycol monoethyl ether, ambient): 2nd | Aliquot where API first fully dissolved, Part 1 Study (in Diethylene glycol monoethyl ether, ambient, aliquots 1/2/3 = 0.05/0.025/0.0125 % w/v): 1st | Solubility range (% w/v) Above/Below (in Diethylene glycol monoethyl ether, ambient, listed as API): > 0.40% w/v and < 0.80% w/v | Aliquot where API first fully dissolved, Part 1 Study (in Glycerol, ambient, DND = did not dissolve even after 3 aliquots (0.0125 % w/v)): DND* | Aliquot where API first fully dissolved, Part 1 Study (in Kolliphor EL, ambient, DND = did not dissolve even after 3 aliquots (0.0125 % w/v)): DND* | Aliquot where API first fully dissolved, Part 1 Study (in Kolliphor ELP, ambient, DND = did not dissolve even after 3 aliquots (0.0125 % w/v)): DND* | Aliquot where API first fully dissolved, Part 1 Study (in Labrafil M 2125 CS, ambient, DND = did not dissolve even after 3 aliquots (0.0125 % w/v)): DND* | Observation of Part 2 solution on standing (in Labrasol ALF, after 4 aliquots (0.1 % w/v), 5 days later at ambient): Precipitate | Aliquot where API first fully dissolved, Part 2 Study (in Labrasol ALF, ambient): 3rd | Solubility range (% w/v) Above/Below (in Labrasol ALF, ambient, listed as API): > 0.025% w/v and < 0.05% w/v | Aliquot where API first fully dissolved, Part 1 Study (in Labrasol ALF, ambient, only after stirring overnight, aliquots 1/2/3 = 0.05/0.025/0.0125 % w/v): 2nd^# | Aliquot where API first fully dissolved, Part 1 Study (in Miglyol 812 (Medium-chain Triglycerides), ambient, DND = did not dissolve even after 3 aliquots (0.0125 % w/v)): DND* | Aliquot where API first fully dissolved, Part 2 Study (in Octanoic acid, ambient): 2nd | Aliquot where API first fully dissolved, Part 1 Study (in Octanoic acid, ambient, aliquots 1/2/3 = 0.05/0.025/0.0125 % w/v): 2nd | Solubility range (% w/v) Above/Below (in Octanoic acid, ambient, listed as API): > 0.40% w/v and < 0.80% w/v | Aliquot where API first fully dissolved, Part 1 Study (in Oleic acid, ambient, DND = did not dissolve even after 3 aliquots (0.0125 % w/v)): DND* | Aliquot where API first fully dissolved, Part 2 Study (in PEG 400, ambient): 4th | Aliquot where API first fully dissolved, Part 1 Study (in PEG 400, ambient, aliquots 1/2/3 = 0.05/0.025/0.0125 % w/v): 2nd | Aliquot where API first fully dissolved, Part 2 Study (in PEG400:PEG 1500 (1:1)): 1st | Aliquot where API first fully dissolved, Part 1 Study (in PEG400:PEG 1500 (1:1), aliquots 1/2/3 = 0.05/0.025/0.0125 % w/v): 1st | Solubility range (% w/v) Above/Below (in PEG400:PEG 1500 (1:1), upper limit not known): > 0.80% w/v | Aliquot where API first fully dissolved, Part 2 Study (in PEG400:PEG 1500 (1:9)): 1st | Aliquot where API first fully dissolved, Part 1 Study (in PEG400:PEG 1500 (1:9), aliquots 1/2/3 = 0.05/0.025/0.0125 % w/v): 1st | Solubility range (% w/v) Above/Below (in PEG400:PEG 1500 (1:9), upper limit not known): > 0.80% w/v | Aliquot where API first fully dissolved, Part 2 Study (in PEG400:PEG 1500 (9:1)): 1st | Aliquot where API first fully dissolved, Part 1 Study (in PEG400:PEG 1500 (9:1), aliquots 1/2/3 = 0.05/0.025/0.0125 % w/v): 1st | Solubility range (% w/v) Above/Below (in PEG400:PEG 1500 (9:1), upper limit not known): > 0.80% w/v | Aliquot where API first fully dissolved, Part 2 Study (in PEG1500:PEG6000 (1:1), ~80° C.): 1st | Aliquot where API first fully dissolved, Part 1 Study (in PEG1500:PEG6000 (1:1), ~80° C., aliquots 1/2/3 = 0.05/0.025/0.0125 % w/v): 1st | Solubility range (% w/v) Above/Below (in PEG1500:PEG6000 (1:1), ~80° C., upper limit not known): > 0.80% w/v | Aliquot where API first fully dissolved, Part 2 Study (in PEG1500:PEG6000 (1:9), ~80° C.): 1st | Aliquot where API first fully dissolved, Part 1 Study (in PEG1500:PEG6000 (1:9), ~80° C., aliquots 1/2/3 = 0.05/0.025/0.0125 % w/v): 3rd | Solubility range (% w/v) Above/Below (in PEG1500:PEG6000 (1:9), ~80° C., upper limit not known): > 0.80% w/v | Aliquot where API first fully dissolved, Part 2 Study (in PEG1500:PEG6000 (9:1), ~80° C.): 1st | Aliquot where API first fully dissolved, Part 1 Study (in PEG1500:PEG6000 (9:1), ~80° C., aliquots 1/2/3 = 0.05/0.025/0.0125 % w/v): 1st | Solubility range (% w/v) Above/Below (in PEG1500:PEG6000 (9:1), ~80° C., upper limit not known): > 0.80% w/v | Aliquot where API first fully dissolved, Part 2 Study (in PEG1500:TPGS (1:1)): 1st | Aliquot where API first fully dissolved, Part 1 Study (in PEG1500:TPGS (1:1), aliquots 1/2/3 = 0.05/0.025/0.0125 % w/v): 1st | Solubility range (% w/v) Above/Below (in PEG1500:TPGS (1:1), upper limit not known): > 0.80% w/v | Aliquot where API first fully dissolved, Part 2 Study (in PEG1500:TPGS (1:9)): 2nd | Aliquot where API first fully dissolved, Part 1 Study (in PEG1500:TPGS (1:9), aliquots 1/2/3 = 0.05/0.025/0.0125 % w/v): 3rd | Solubility range (% w/v) Above/Below (in PEG1500:TPGS (1:9), listed as API): > 0.40% w/v and < 0.80% w/v | Aliquot where API first fully dissolved, Part 2 Study (in PEG1500:TPGS (9:1)): 1st | Aliquot where API first fully dissolved, Part 1 Study (in PEG1500:TPGS (9:1), aliquots 1/2/3 = 0.05/0.025/0.0125 % w/v): 1st | Solubility range (% w/v) Above/Below (in PEG1500:TPGS (9:1), upper limit not known): > 0.80% w/v | Aliquot where API first fully dissolved, Part 2 Study (in Polysorbate 20, ambient, only after Overnight Hold): 4th Only | Aliquot where API first fully dissolved, Part 1 Study (in Polysorbate 20, ambient, only after stirring overnight, aliquots 1/2/3 = 0.05/0.025/0.0125 % w/v): 3rd^# | Solubility range (% w/v) Above/Below (in Polysorbate 20, ambient, upper limit not known): > 0.10% w/v | Aliquot where API first fully dissolved, Part 2 Study (in Polysorbate 80, ambient, only after Overnight Hold): 4th Only | Aliquot where API first fully dissolved, Part 1 Study (in Polysorbate 80, ambient, only after stirring overnight, aliquots 1/2/3 = 0.05/0.025/0.0125 % w/v): 3rd^# | Solubility range (% w/v) Above/Below (in Polysorbate 80, ambient, upper limit not known): > 0.10% w/v | Aliquot where API first fully dissolved, Part 2 Study (in Propylene glycol dilaurate, ambient, only after Overnight Hold): 4th Only | Aliquot where API first fully dissolved, Part 1 Study (in Propylene glycol dilaurate, ambient, only after stirring overnight, aliquots 1/2/3 = 0.05/0.025/0.0125 % w/v): 3rd^# | Solubility range (% w/v) Above/Below (in Propylene glycol dilaurate, ambient, upper limit not known): > 0.10% w/v | Aliquot where API first fully dissolved, Part 2 Study (in Propylene glycol monocaprylate, ambient): 2nd | Aliquot where API first fully dissolved, Part 1 Study (in Propylene glycol monocaprylate, ambient, aliquots 1/2/3 = 0.05/0.025/0.0125 % w/v): 2nd | Solubility range (% w/v) Above/Below (in Propylene glycol monocaprylate, ambient, listed as API): > 0.40% w/v and < 0.80% w/v | Aliquot where API first fully dissolved, Part 1 Study (in Soybean oil, ambient, DND = did not dissolve even after 3 aliquots (0.0125 % w/v)): DND* | Aliquot where API first fully dissolved, Part 2 Study (in molten Capmul 808G): 3rd | Aliquot where API first fully dissolved, Part 1 Study (in molten Capmul 808G, aliquots 1/2/3 = 0.05/0.025/0.0125 % w/v): 1st | Solubility range (% w/v) Above/Below (in molten Capmul 808G, listed as API): > 0.25% w/v and < 0.40% w/v | Solubility range (% w/v) Above/Below (in molten Cremophor RH40, listed as API): > 0.40% w/v and < 0.80% w/v | Aliquot where API first fully dissolved, Part 1 Study (in molten Cremophor RH40, only after Overnight Hold, aliquots 1/2/3 = 0.05/0.025/0.0125 % w/v): 2nd Only | Aliquot where API first fully dissolved, Part 2 Study (in molten Cremophor RH40, only after stirring overnight): 2nd^# | Aliquot where API first fully dissolved, Part 2 Study (in molten Gelucire 48/16): 4th | Aliquot where API first fully dissolved, Part 1 Study (in molten Gelucire 48/16, aliquots 1/2/3 = 0.05/0.025/0.0125 % w/v): 1st | Aliquot where API first fully dissolved, Part 2 Study (in molten Gelucire 50/13): 3rd | Aliquot where API first fully dissolved, Part 1 Study (in molten Gelucire 50/13, aliquots 1/2/3 = 0.05/0.025/0.0125 % w/v): 2nd | Solubility range (% w/v) Above/Below (in molten Gelucire 50/13, listed as API): > 0.25% w/v and < 0.40% w/v | Aliquot where API first fully dissolved, Part 2 Study (in molten Glyceryl monooleate): 2nd | Aliquot where API first fully dissolved, Part 1 Study (in molten Glyceryl monooleate, aliquots 1/2/3 = 0.05/0.025/0.0125 % w/v): 2nd | Solubility range (% w/v) Above/Below (in molten Glyceryl monooleate, listed as API): > 0.40% w/v and < 0.80% w/v | Aliquot where API first fully dissolved, Part 1 Study (in molten Glyceryl palmitostearate, DND = Did not dissolve (3 aliquots, 0.0125 % w/v)): DND* | Aliquot where API first fully dissolved, Part 2 Study (in molten Kolliphor HS15): 2nd | Aliquot where API first fully dissolved, Part 1 Study (in molten Kolliphor HS15, aliquots 1/2/3 = 0.05/0.025/0.0125 % w/v): 1st | Solubility range (% w/v) Above/Below (in molten Kolliphor HS15, listed as API): > 0.40% w/v and < 0.80% w/v | Aliquot where API first fully dissolved, Part 2 Study (in molten PEG 4000): 2nd | Aliquot where API first fully dissolved, Part 1 Study (in molten PEG 4000, aliquots 1/2/3 = 0.05/0.025/0.0125 % w/v): 1st | Solubility range (% w/v) Above/Below (in molten PEG 4000, listed as API): > 0.40% w/v and < 0.80% w/v | Aliquot where API first fully dissolved, Part 2 Study (in molten PEG 6000, ~80° C.): 1st | Aliquot where API first fully dissolved, Part 1 Study (in molten PEG 6000, ~80° C., aliquots 1/2/3 = 0.05/0.025/0.0125 % w/v): 2nd | Solubility range (% w/v) Above/Below (in molten PEG 6000, ~80° C., upper limit not known): > 0.80% w/v | Aliquot where API first fully dissolved, Part 1 Study (in molten Sorbitan palmitate, DND = Did not dissolve (3 aliquots, 0.0125 % w/v)): DND*
